This assay has as its system Fu5AH rat hepatoma cells. Description: Inhibition of cholesterol ester accumulation in Fu5AH cells. The following applies: for inhibition at 10 µg/mL: Rattus norvegicus. Details: Visual (in comparison to results with compound of Example 2a) / % Inhibition of cholesterol ester accumulation: unit of the concentration uncertain. The format is cell-based. The source says:
For testing a 75 cm^2 flask with a near confluent cell growth is selected. The cells are removed from the flask surface by mild enzymatic treatment with pronase. After centrifugation and decanting the enzyme solution, the cell pellet is resuspended in an appropriate volume of media for seeding the desired number of 60 mm tissue culture dishes. Five (5) ml of the diluted cell suspension are pipetted into each dish. After seeding, the dishes are labelled with the cell type, date and flask number of origin and incubated at 37° C. in approximately 5% CO2 atmosphere in a high humidity incubator. When the cultures are confluent, the actual drug testing is begun. Test compounds are routinely solubilized in 100% ethanol. An equivalent amount of ethanol is added to control groups as well. The tissue culture dishes are randomly divided into groups. To one group, hyperlipemic rabbit serum (HRS) is added at 5% by volume (control). […] The dishes are returned to the incubator for an additional 24 hours. All operations through to the final incubation are performed using sterile technique in a laminar flow hood. After the incubation period, the dishes are microscopically observed with the Zeiss Axiomat with phase contrast optics and the conditions of the cultures are recorded; especially in regard to the size, number and configuration of cytoplasmic inclusions and to cellular morphology. The media is removed from the cultures and 0.9% sodium chloride solution is added. The cells are removed from the flasks with the aid of a rubber policeman and transferred to a conical graduated centrifuge tube. The cells are washed three times by suspending in an isotonic salt solution, centrifuging at 800× g for 10 minutes and aspirating the supernatant fluid.
An appropriate volume of isopropyl alcohol (about 1 ml/mg protein) is then added to the cell pellet and the sample sonicated with a micro probe (140×3 mm) for 10 seconds with a "LO" setting of 50 on a Bronwell Biosonik IV. After centrifugation for 15 minutes at 800× g, the clear supernatant is decanted and an aliquot taken for cholesterol analysis.
An aliquot of 0.4 ml of free reagent (Reagent A, Table 1 below) is added to a 10×75 mm disposable glass test tube to which 20 μl of the isopropyl alcoholic solution is added and mixed. After standing at room temperature for approximately 5 minutes, 0.8 ml of 0.5 N sodium hydroxide (Reagent C, Table 1) is added and mixed. The fluorescence is measured with an Aminco-Bowman spectrophotofluorometer with an excitation wavelength of 325 nm and emission wavelength of 415 nm. A 1 cm light path cuvette is used with a xenon lamp, an IP28 photomultiplier tube and 2 mm slits.
Total cholesterol: The same procedure described above for free cholesterol is followed for total cholesterol except that the total reagent (Reagent B, Table 1) is used instead of the free reagent and the samples are incubated for 20 minutes at 37° C. before the addition of the 0.5 N sodium hydroxide solution (Reagent C, Table 1).
The amount of cholesterol ester is found by subtracting the amount of free cholesterol from the total cholesterol content of the cells determined by the assay.

Setting [1] is: Dose 10 (unit uncertain) as printed.
The mark [2] stands for this setting: Dose 10 as printed, Control = 0.17.

For `CCCCC/C=C\C/C=C\CCCCCCCC(=O)NC(Cc1c[nH]c2ccccc12)C(=O)OCCCCCCCC` (centres unmarked) [Example 4c], where the note is “Dose 5 (unit uncertain) as printed”, the “Visual (in comparison to results with compound of Example 2a)” value (from here on “Visual”) is recorded as “Weaker”. In addition, the F/T (Dose 5 as printed, Control = 0.19) is given as 0.22.

One may read the inhibition as the change of the read-out against control, counted positive when it falls. With `CCCCCCCC/C=C\CCCCCCCC(=O)NC(Cc1c[nH]c2ccc(F)cc12)C(=O)OCC` (centres unmarked) [Example 3e, 2-(1-oxo-9-octadecenylamino)-3-(1H-5 fluoroindolyl)-propanoic acid, ethyl ester], under setting [1], the “Visual” value is “About same”. Also, the inhibition at 10 µg/mL (Table 6) worked out at 39%.

`CCCCCCCC/C=C\CCCCCCCC(=O)NC(Cc1c[nH]c2ccc(OC)cc12)C(=O)OCC` (centres unmarked) [Example 3b, 2-(1-oxo-9-octadecenylamino)-3-(1H-5-methoxyindolyl)-propanoic acid, ethyl ester]: the “Visual” value under setting [1] is on record as “About same”. Besides, the F/T under setting [2] turned out to be 0.45.

With `CCCCC/C=C\C/C=C\CCCCCCCC(=O)NC(Cc1c[nH]c2ccccc12)C(=O)OCC` (stereo not drawn) [Example 1, α-[(1-Oxo-9,12-oxtadecadienylamino)]1H-Indole-3-Propanoic acid, Ethyl Ester(cis, cis isomer)], under setting [1], the “Visual” value is on record as “About same”. The “% Inhibition of cholesterol ester accumulation” value (Dose 10 (unit uncertain) as printed, Table 6) was determined as 59%. Also, the inhibition at 10 µg/mL (Table 6) is 69%.

Consider `CCCCC/C=C\C/C=C\CCCCCCCC(=O)NC(Cc1c[nH]c2ccccc12)C(=O)OCc1ccccc1` (centres unmarked) [Example 4d], for which, under setting [1], the “Visual” value is given as “About same”.

`CCCCCCCC/C=C\CCCCCCCC(=O)NC(Cc1cn(C)c2ccccc12)C(=O)OCC` (centres unmarked) [Example 3a, 2-(1-oxo-9-octadecenylamino)-3-(1-methylindolyl)-propanoic acid, ethyl ester]: under setting [2], the F/T is on record as 0.52.

Source of the values: patent publication US4448785A, “N-Unsaturated fatty acid amides of tryptophan ester homologues and anti-cholesteric use thereof” (Sandoz, Inc., priority 1982, dated 1984).
